These results are taken from patent publication US11529318B2, “Devices and methods for local delivery of tacrolimus” (UNIVERSITY OF PITTSBURGH—OF THE COMMONWEALTH SYSTEM OF …, priority 2017, dated 2022).

In data set [1] the test system is glial fibrillary acidic protein (GFAP) expression. Briefly: GFAP immunohistochemistry of optic nerve after optic nerve crush. In kind it is in vivo, Sprague-Dawley rats. The note with it: 14 days after optic nerve crush, systemic tacrolimus treatment, compared to uncrushed controls. As for the experimental part:
(§1) Optic nerve ischemia and PEUU-Tac matrix application. Animals were anesthetized by intraperitoneal injection of 45:10 mg/kg ketamine/xylazine cocktail. Once anaesthetized, the optic nerve was exposed by making a small incision and then creating a nearly bloodless plane through the conjunctiva by blunt dissection with #5 forceps. The surrounding muscle and connective tissue around the optic nerve were then gently separated until the optic nerve was exposed. Using a Yasagril aneurysm clip, the right optic nerve was clamped ˜2 mm behind the globe for 10 seconds (Sarikcioglu, Demir et al. 2007). After removing the clip, ophthalmic artery integrity was confirmed by visualization. For some animals, the optic nerve sheath was fenestrated at the injury site by making an 1-2 mm incision. For animals receiving PEUU-Tac, a 1×5 mm section cut from a 10 mg PEUU-Tac matrix was sutured around the injury site and then secured by suturing to the outer sheath. After each optic nerve procedure, the conjunctiva was sutured and antibiotic ointment (Gentamicin, Bausch & Lomb, Tampa, Fla.) was applied to the eye. In total, twenty-eight animals received acute optic nerve ischemia to the right optic nerve with or without a PEUU-Tac wrap.
Immunohistochemistry. […]

The next data set is described as follows: in vivo. The note with it: Sprague-Dawley, rat, 2.2 mg/kg/day, tacrolimus concentration. Further details: species or system Sprague-Dawley rats. As for the experimental part: as §1, with “wrap. The experimental groups were as follows: • (1) Five animals received a 1 mm×5 mm section of a 10 mg PEUU-Tac sheet sutured around the nerve. • (2) Five animals received a 1 mm×5 mm section of a 10 mg PEUU-Tac matrix implanted subcutaneously in the lower right quadrant of the abdomen. • (3) Five animals received daily intraperitoneal injections of tacrolimus (2.2 mg/kg/day) for 14 days with the first injection administered immediately after ischemic injury. • (4) Five animals were used as a sham control.” for “wrap.”
Blood and tissue collection. Twenty-four hours after injury, blood samples were drawn from all four groups via the tail vein. Four of the eight animals treated with PEUU-Tac were sacrificed at 24 hours and sixteen animals were sacrificed at 14 days. Blood, both retinas and both optic nerves were collected from all animals.
Tacrolimus tissue extraction and reconstitution in blood. Tissue (retina and optic nerve) samples were weighted and homogenized with organic solvent (methanol, 100%) using Mini-BeadBeater-1 sonicator for cell disruption and left over night to assure complete tacrolimus extraction. The homogenate was centrifuged at 2100±100 rpm for 10 min. The methanol was transferred to a microcentrifuge tube and evaporated using a sample concentrator. The drug residue was reconstituted with 1 mL of blood. Tacrolimus in the blood was analyzed as described below and tissue drug concentration was expressed in ng/g of tissue weight.
Quantification of tacrolimus in blood by HPLC-tandem mass spectrometry. […]

The nature of data set [2]: Tacrolimus concentration in blood, optic nerve ischemia model (Example 1). In kind it is in vivo, Sprague-Dawley rats. The note with it: Sprague-Dawley, rat, whole blood, ip, systemic administration (i.p. 2.2 mg/kg/day). How it is done: as §1, with “In total, twenty-eight animals received acute optic nerve ischemia to the right optic nerve with or without a PEUU-Tac wrap.” left out
Quantification of tacrolimus in blood by HPLC-tandem mass spectrometry. […] Monitored parent to product mass transitions for tacrolimus and ascomycin were 821.63→768.33 and 809→756 m/z, respectively.

For the compound `C=CC[C@@H]1/C=C(\C)C[C@H](C)C[C@H](OC)[C@H]2O[C@@](O)(C(=O)C(=O)N3CCCC[C@H]3C(=O)O[C@H](/C(C)=C/[C@@H]3CC[C@@H](O)[C@H](OC)C3)[C@H](C)[C@@H](O)CC1=O)[C@H](C)C[C@@H]2OC` [tacrolimus], the “GFAP expression in optic nerve” value in data set [1] is listed as “did not cause significant GFAP expression”. Further, the concentration at 14 days stood at 1700 ng/g in “in vivo” (left optic nerve); 618 ng/g in “in vivo” (left retina); 2200 ng/g in “in vivo” (right optic nerve); 530 ng/g in “in vivo” (right retina); 27.7 ± 3.53 ng/mL in data set [2] (14 days). The compound further gave a concentration at 24 h in data set [2] (24 hour) of 7.05 ± 1.09 ng/mL.
